# Measurements reported in US20260043020A1, “BINDING MEMBERS WITH ALTERED DIVERSITY SCAFFOLD DOMAINS” (priority 2016, published 2026).
# Biological target: T1, trypsin (Bos taurus, UniProt P00760)
# T1 construct: gene PRSS1
# T1 sequence (P00760 24-246): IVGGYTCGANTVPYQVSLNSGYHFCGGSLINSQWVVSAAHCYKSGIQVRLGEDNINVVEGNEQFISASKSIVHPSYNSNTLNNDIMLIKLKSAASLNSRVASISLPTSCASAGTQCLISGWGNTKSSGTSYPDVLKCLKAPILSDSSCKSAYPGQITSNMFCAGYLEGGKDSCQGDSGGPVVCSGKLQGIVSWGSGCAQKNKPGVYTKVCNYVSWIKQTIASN
# Test: Polyclonal phage TRF binding assay on trypsin
# Settings: phage display; direct gene-III fusion or round-2 polyclonal phage
# Description: Phage display technology facilitates isolation of binders to any given target from large combinatorial repertoires based on proteins and peptides that can be presented on the surface of filamentous phage^105. In order to isolate functional knottin-antibody fusions from the KnotBody libraries multiple rounds of phage display selections on trypsin (cognate antigen for the EETI-II donor) were carried out. Phage particles were prepared by rescuing KnotBody libraries using trypsin cleavable helper phage^102,106Two rounds of phage display selections were performed on 10 μg/ml biotinylated trypsin immobilised on Streptavidin (for Round-1) or Neutravidin (for round-2) coated Maxisorp™ immunotubes (Thermo Scientific, Cat No. 444202). In both rounds of selection, phage libraries were pre-incubated with streptavidin coated paramagnetic beads (Thermo Fisher Scientific, Cat. No. 11205D). […] Polyclonal phage preparations from round-2 selection outputs were analysed for trypsin binding using a time resolved fluorescence (TRF) binding assay. In this assay, polyclonal phage binding to biotinylated trypsin immobilised on neutravidin (Thermo Fisher Scientific, Cat. No 31000) coated Maxisorp™ plates (Thermo Scientific, Cat. No. 437111) was detected using a mouse anti-M13 antibody (GE Healthcare, Cat. No. 27-9420-01) followed by europium conjugated anti-mouse antibody (Perkin Elmer, Cat. No. AD0124). […]
substance,measurement,value
EETI-II,phage binding to trypsin,no detectable binding
